Experimental findings from ChEMBL document CHEMBL3297728, “Synthesis and antituberculosis activity of novel 5-styryl-4-(hetero)aryl-pyrimidines via combination of the Pd-catalyzed Suzuki cross-coupling and S(N)(H) reactions” (Bioorg Med Chem Lett, 2014) are described below.

Series [1] concerns Mycolicibacter terrae. Briefly: Antimycobacterial activity against Mycobacterium terrae after 10 days by microbroth dilution method. In kind it is functional. The following applies: 240 h.
Series [2] can be described thus: Acute toxicity in mouse administered as single po dose. In kind it is organism-based. The following applies: in vivo.
Series [3] deals with Mycobacterium tuberculosis. The experiment in a line: Antimycobacterial activity against Mycobacterium tuberculosis H37Rv after 10 days by microbroth dilution method. In kind it is functional. The following applies: 240 h. In general terms: In broth dilution the organism is exposed to a series of concentrations in liquid medium.
Series [4] concerns Mycobacterium avium. The experiment in a line: Antimycobacterial activity against Mycobacterium avium after 10 days by microbroth dilution method. In kind it is functional. The note with it: 240 h.
The nature of series [5]: Acute toxicity in mouse administered as single ip dose. In kind it is organism-based. The following applies: in vivo.

In brackets after ≈: the same amount, converted by molar mass.

By MIC is commonly meant the lowest concentration found to suppress growth. One may read the LD50 as the dose at which mortality reaches 50%.

For `Brc1cncnc1-c1cccs1`, the values for the MIC in series [1], in series [3] and in series [4] were 0.3 µg/mL (≈ 1.24 µM), 0.7 µg/mL (≈ 2.9 µM) and 0.3 µg/mL (≈ 1.24 µM), respectively. In series [2], this compound yielded a 50% lethal dose (LD50) of 315 mg/kg.

Take `C(=C\c1cncnc1-c1ccc(-c2cccs2)s1)/c1ccc(-c2ccccc2)cc1`: the minimum inhibitory concentration (MIC) in series [1] was 0.7 µg/mL (≈ 1.66 µM); in series [3], 1.5 µg/mL (≈ 3.55 µM); in series [4] it was 0.7 µg/mL (≈ 1.66 µM). Besides, the 50% lethal dose (LD50) in series [2] was 78 mg/kg.

For the compound `C(=C\c1cncnc1-c1ccc(-c2cccs2)s1)/c1ccccc1`, in series [1], the MIC amounted to 0.7 µg/mL (≈ 2.02 µM).

On to `Brc1cncnc1-c1ccco1`, for which the minimum inhibitory concentration (MIC) in series [1] is 0.7 µg/mL (≈ 3.11 µM); in series [3], 1.5 µg/mL (≈ 6.67 µM); in series [4], 0.7 µg/mL (≈ 3.11 µM). The compound further displayed a median lethal dose (LD50) in series [2] of 405 mg/kg.

In series [3], `c1ccc(-c2ccc(-c3ccncn3)s2)cc1` returned an MIC of 12.5 µg/mL (≈ 52.5 µM).

In series [3], `C(=C\c1cncnc1-c1ccc(-c2ccccc2)s1)/c1ccc(-c2ccccc2)cc1` showed a minimum inhibitory concentration (MIC) of 12.5 µg/mL (≈ 30 µM).

`Brc1cncnc1-c1ccc(-c2ccccc2)s1`: in series [3], the MIC is 6.25 µg/mL (≈ 19.7 µM).

As to `C(=C\c1cncnc1-c1cccs1)/c1ccc(-c2ccccc2)cc1`, the lowest concentration to inhibit growth in series [3] (MIC) was 12.5 µg/mL (≈ 36.7 µM).

Compound `c1csc(-c2ccc(-c3ccncn3)s2)c1` had an MIC in series [3] of 12.5 µg/mL (≈ 51.2 µM).

On to `NNC(=O)c1ccncc1` [ISONIAZID], for which the MIC in series [1], in series [3] and in series [4] was 0.1 µg/mL (≈ 0.729 µM) throughout. Besides, the results for the LD50 in series [5] and in series [2] were 151 mg/kg and 133 mg/kg, respectively.

Compound `c1csc(-c2ccncn2)c1` registered an MIC in series [3] of 12.5 µg/mL (≈ 77.1 µM).

Turning to `C(=C\c1cncnc1-c1ccco1)/c1ccc(-c2ccccc2)cc1`, the minimum inhibitory concentration (MIC) in series [3] is 12.5 µg/mL (≈ 38.5 µM).

In series [1], `Brc1cncnc1-c1ccc(-c2cccs2)s1` gave an MIC of 0.7 µg/mL (≈ 2.17 µM).

`NC(=O)c1cnccn1` [PYRAZINAMIDE] had a median lethal dose (LD50) in series [5] of 1680 mg/kg. In series [3], this compound came in with an MIC of 12.5 µg/mL (≈ 102 µM).

`C(=C\c1cncnc1-c1cccs1)/c1ccccc1` returned a minimal inhibitory concentration (MIC) in series [3] of 12.5 µg/mL (≈ 47.3 µM).

`C(=C\c1cncnc1-c1ccc(-c2ccccc2)s1)/c1ccccc1` yielded an MIC in series [3] of 12.5 µg/mL (≈ 36.7 µM).

`C(=C\c1cncnc1-c1ccco1)/c1ccccc1`: in series [3], the lowest concentration to inhibit growth (MIC) was 6.25 µg/mL (≈ 25.2 µM).
